Results on five compounds are retold here after US20230277490A1, “GLUTAMINE AS AN ANTICANCER THERAPY IN SOLID TUMORS” (CEDARS-SINAI MEDICAL CENTER, priority 2020, published 2023).

As usually defined, the IC50 is the midpoint of a concentration-inhibition curve.

Series [1] relates to PDAC cells. Kind of series: Glutamine supplementation with increasing concentrations of gemcitabine in PDAC cells. Type of series: cell-based. The source says: The ability of L-Gln supplementation to […] intracellular nucleotide stores makes it an attractive agent to pair with gemcitabine, a standard chemotherapy used in the treatment of PDAC patients whose activity is also based on its ability to inhibit DNA synthesis.
We show herein that glutamine deprivation through glutaminase inhibition increases cancer cell survival and potentiates resistance to gemcitabine in PDAC cells.

Series [2] has as its system pancreatic cancer cells. Kind of series: DNA damage accumulation. Particulars: combination of glutamine and gemcitabine over either single agent. The format is cell-based, human.
Another series concerns melanoma tumor. Particulars: dietary supplementation; cited from earlier work.
For series [3], the system named is pancreatic cancer cells. Nature of the series: Basal metabolic rate and mitochondrial proton leakage of pancreatic cancer cells. The format is cell-based, human.
Series [4] concerns Pancreatic cancer cells (MIAPaCa human cell line). Nature of the series: Relative cell number / gemcitabine dose response with glutamine. The format is cell-based. Particulars: for IC50: Homo sapiens, MIAPaCa cells.
Series [5] has as its system pancreatic cancer cells. Nature of the series: Metabolomic mass spectrometric analysis of metabolite levels. The format is cell-based, human. Here is the method: We tested how elevated glutamine affects gemcitabine efficacy. […] We next tested the metabolic impact of super-physiologic glutamine concentration (40 mM) on the gemcitabine response (0.5 μM) of pancreatic cancer cells through standard metabolomic mass spectrometric analysis. The heat map in FIG. 3 illustrates the differential metabolite accumulation with glutamine and gemcitabine treatment, as single agent and in combination. There were a number of metabolic changes that were only observed with the combination treatment. […] Importantly, high glutamine administration would reduce the concentration of gemcitabine required to cause significant cancer cell death.

The conditions of series [6]: at 23° C.; cited from earlier work.
The conditions of series [7]: enteral glutamine, 47 prospective trials, over 1600 adult patients; cited from earlier work.
For series [8], the system named is Mia PaCa-2 cells. Nature of the series: Intracellular sodium by sodium green fluorescence intensity. Type of series: cell-based. Conditions: MIA PaCa-2 cells in vitro; L-Gln 40 mM, D-Gln high dose.
For series [9], the system named is PDAC cells. Nature of the series: PDAC cell growth / cell death in vitro. Type of series: cell-based. Particulars: D-Gln high dose.
In a further series the test system is PDAC mouse models. Conditions: in vivo; cited from earlier work.
For series [10], the system named is Mia PaCa-2 cells. Nature of the series: Antitumor efficacy of L-Gln supplementation and CB-839 in vitro (FIG. 7). The format is cell-based. Conditions: for antitumor efficacy: single agent, Mia PaCa-2 cells in vitro.
Series [11] concerns PDAC cells. Type of series: cell-based. The source says:
As L-Gln supplementation enhances the efficacy of chemotherapy, we tested whether L-Gln can lower the effective dose of gemcitabine.

Where [12] appears, read: combination 40 mM glutamine and 0.5 μM gemcitabine.

On to `NC(=O)CC[C@H](N)C(=O)O` [glutamine], for which, in the series with PDAC cells [1] (glutamine supplementation), the “PDAC cell death with increasing concentrations of gemcitabine” value is listed as “enhancement of PDAC cell death”. Also, the “cancer cell viability with increasing concentrations of gemcitabine” value in the series on PDAC cells [1] (glutamine supplementation in the face of glutaminase inhibition) was “decreased cancer cell viability”. The sensitivity to gemcitabine entry with PDAC cells [1] (glutamine supplementation, even in the face of glutaminase inhibition) is listed as “enhances sensitivity to gemcitabine”. Moreover, the DNA damage entry with pancreatic cancer cells [2] is recorded as “greater DNA damage accumulation”. For the same compound, in the series with melanoma tumor, the melanoma tumor growth entry is “can inhibit melanoma tumor growth”. The “mitochondrial proton leakage induced by gemcitabine” value in the series on pancreatic cancer cells [3] (additional glutamine treatment) was “reduced”. Also, the basal metabolic rate entry in the series with pancreatic cancer cells [3] (combination of 40 mM glutamine and 0.5 μM gemcitabine) is recorded as “further elevated still”. Further, the cell death entry in [4] (combination of elevated concentrations of glutamine and gemcitabine compared to either alone) was “dramatic increase in cell death”. Also, in the series on pancreatic cancer cells [5] (setting [12]), the free nucleotides entry is recorded as “accumulation of free nucleotides”; the “vitamin C and SAM levels” value was “accumulation of vitamin C and S-adenosine methionine (SAM)”. Moreover, the solubility in series [6] is listed as 3.6%. Moreover, the tolerability result in series [7] is given as “well-tolerated”.

For `Nc1ccn([C@@H]2O[C@H](CO)[C@@H](O)C2(F)F)c(=O)n1` [gemcitabine], the basal metabolic rate result with pancreatic cancer cells [3] (gemcitabine alone) was “elevated”. The mitochondrial proton leakage entry with pancreatic cancer cells [3] (gemcitabine alone) is “induced”. Moreover, the IC50 in series [4] (MIA PaCa-2, in the presence of 2 mM glutamine (physiologic concentration)) was found to be 666 nM; in [4] (MIA PaCa-2, with 40 mM glutamine (super-physiologic concentration)) it was 179 nM.

On to `C[C@@H]1O[C@@H](O[C@H]2C[C@@H](O)[C@]3(CO)[C@H]4[C@H](O)C[C@]5(C)[C@@H](C6=CC(=O)OC6)CC[C@]5(O)[C@@H]4CC[C@]3(O)C2)[C@H](O)[C@H](O)[C@H]1O` [Ouabain], for which the intracellular sodium entry in the series with Mia PaCa-2 cells [8] is “leads to build up of intracellular sodium”. Moreover, the “PDAC cell growth / cell death” value in the series on PDAC cells [9] is “greater PDAC cell death”.

On to `O=C(Cc1cccc(OC(F)(F)F)c1)Nc1ccc(CCCCc2nnc(NC(=O)Cc3ccccn3)s2)nn1` [CB-839], for which the “efficacy in PDAC mouse models” value with PDAC mouse models is “failed”. Further, the antitumor efficacy entry in the series with Mia PaCa-2 cells [10] is “some antitumor efficacy”.

Regarding `NC(=O)CC[C@H](N)C(=O)O` [L-Gln, L-glutamine], the “antitumor effects of gemcitabine” value with PDAC cells [1] (L-Gln 40 mM compared to 2 mM, several PDAC cell lines) is “consistently enhanced the antitumor effects of gemcitabine”. Also, in the series on Mia PaCa-2 cells [10] (40 mM L-Gln compared to control 2 mM L-Gln), the “antitumor efficacy over time” value is “consistently better with antitumor efficacy”. The “antitumor activity under glutaminase inhibition” value with Mia PaCa-2 cells [10] (L-Gln together with CB-839) is “occurred independently of glutaminase inhibition with CB-839”. In the series on Mia PaCa-2 cells [10], the antitumor efficacy entry is listed as “greater antitumor activity”. Further, the “TCA cycle metabolite levels” value in the series with pancreatic cancer cells [5] (40 mM L-Gln) is listed as “did not affect the majority of TCA cycle metabolites”. In addition, the “intracellular essential and conditionally amino acids” value in the series on pancreatic cancer cells [5] (40 mM compared to 2 mM L-Gln, PDAC cells in vitro) is given as “significantly depleted”. The intracellular nucleotide stores result in the series with pancreatic cancer cells [5] (40 mM compared to control 2 mM L-Gln) is “significantly depleted”. Moreover, the intracellular sodium result with Mia PaCa-2 cells [8] was “increases intracellular sodium levels”. In the series on PDAC cells [11], the “colony formation with 5-FU” value was “as effective or even more effective than 5-FU at 0.1 uM”. Also, the “colony formation with gemcitabine” value in the series on PDAC cells [11] (20 mM L-Gln plus gemcitabine) is reported as “can enhance the efficacy gemcitabine”. For the same compound, the “colony formation with paclitaxel” value in the series with PDAC cells [11] (high-dose L-Gln plus paclitaxel) is “enhances the efficacy of paclitaxel”.
